Results reported in a compilation of properties of binary mixtures (doi:10.1021/acs.jced.0c01028).

Test: xn = mol fraction of the nth substance listed
Details: 81.5 kPa

CCCC[n+]1ccn(C)c1.N#C[S-] + CCCCC(C)O
x1 = 1
Details	speed of sound [m/s]
298.15 K	1762
308.15 K	1738
318.15 K	1714
328.15 K	1691
338.15 K	1668

CCCCC(C)O (configuration not stated) + CCCC[n+]1ccn(C)c1.N#C[S-]
speed of sound [m/s]
Details	x2 = 0	x2 = 0.1011	x2 = 0.2003	x2 = 0.2992	x2 = 0.3988	x2 = 0.4964	x2 = 0.6029	x2 = 0.6993	x2 = 0.7996	x2 = 0.8987
288.15 K	1299	–	1397	1448	1497	1549	1601	1653	–	1748
298.15 K	–	1316	1366	–	1469	1521	1574	1628	1673	1724
308.15 K	1226	1283	1335	1389	1441	1494	1549	1603	–	1700
318.15 K	1189	–	1304	–	–	1471	1530	1581	1632	1676
328.15 K	1153	–	–	1331	1385	1441	1498	1554	1601	1653
338.15 K	1117	1183	–	1302	1357	–	1474	–	1577	1630
